Reference: article PMC7368294 (Proceedings of the National Academy of Sciences of the …, 2020)
pEC50: −log10 of the molar value.

What follows are molecules tested against T1, Btα1/Btα8/Btβ1 nAChR (Bombus terrestris, UniProt A0A9B0BGM1+A0A9B0F4H3+A0A9B2JDZ7) (assay: two-electrode voltage clamp of Xenopus oocytes, agonist concentration-response).
T1 sequence (A0A9B0F4H3 44-615): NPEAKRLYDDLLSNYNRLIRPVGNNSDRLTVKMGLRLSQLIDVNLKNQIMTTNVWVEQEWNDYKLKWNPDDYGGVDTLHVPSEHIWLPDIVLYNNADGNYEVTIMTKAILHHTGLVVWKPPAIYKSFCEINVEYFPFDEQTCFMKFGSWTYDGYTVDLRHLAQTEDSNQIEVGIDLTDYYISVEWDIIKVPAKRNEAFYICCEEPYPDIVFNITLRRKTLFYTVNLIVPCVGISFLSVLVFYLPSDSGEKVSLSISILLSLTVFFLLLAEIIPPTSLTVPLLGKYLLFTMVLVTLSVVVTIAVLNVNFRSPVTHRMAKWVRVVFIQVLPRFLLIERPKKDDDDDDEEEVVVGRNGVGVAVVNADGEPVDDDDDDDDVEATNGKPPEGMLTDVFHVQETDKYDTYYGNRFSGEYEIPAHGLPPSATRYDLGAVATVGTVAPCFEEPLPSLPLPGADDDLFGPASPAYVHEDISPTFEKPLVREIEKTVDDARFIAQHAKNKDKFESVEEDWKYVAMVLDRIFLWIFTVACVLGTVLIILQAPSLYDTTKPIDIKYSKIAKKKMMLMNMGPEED
T1 sequence (A0A9B2JDZ7 22-535): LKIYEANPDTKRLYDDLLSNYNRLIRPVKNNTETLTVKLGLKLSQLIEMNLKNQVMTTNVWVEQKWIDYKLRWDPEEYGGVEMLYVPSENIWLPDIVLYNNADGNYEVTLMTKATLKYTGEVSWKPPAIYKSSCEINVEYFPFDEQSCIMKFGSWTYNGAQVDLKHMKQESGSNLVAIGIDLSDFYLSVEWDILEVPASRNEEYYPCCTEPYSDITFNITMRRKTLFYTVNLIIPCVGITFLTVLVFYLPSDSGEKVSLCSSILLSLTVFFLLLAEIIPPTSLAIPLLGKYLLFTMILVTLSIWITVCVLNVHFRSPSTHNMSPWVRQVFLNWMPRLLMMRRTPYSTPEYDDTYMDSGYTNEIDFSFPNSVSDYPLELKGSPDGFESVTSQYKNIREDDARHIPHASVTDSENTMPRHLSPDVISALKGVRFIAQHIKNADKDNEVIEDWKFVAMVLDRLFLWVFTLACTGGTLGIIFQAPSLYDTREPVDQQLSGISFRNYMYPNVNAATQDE
T1 sequence (A0A9B0BGM1 19-519): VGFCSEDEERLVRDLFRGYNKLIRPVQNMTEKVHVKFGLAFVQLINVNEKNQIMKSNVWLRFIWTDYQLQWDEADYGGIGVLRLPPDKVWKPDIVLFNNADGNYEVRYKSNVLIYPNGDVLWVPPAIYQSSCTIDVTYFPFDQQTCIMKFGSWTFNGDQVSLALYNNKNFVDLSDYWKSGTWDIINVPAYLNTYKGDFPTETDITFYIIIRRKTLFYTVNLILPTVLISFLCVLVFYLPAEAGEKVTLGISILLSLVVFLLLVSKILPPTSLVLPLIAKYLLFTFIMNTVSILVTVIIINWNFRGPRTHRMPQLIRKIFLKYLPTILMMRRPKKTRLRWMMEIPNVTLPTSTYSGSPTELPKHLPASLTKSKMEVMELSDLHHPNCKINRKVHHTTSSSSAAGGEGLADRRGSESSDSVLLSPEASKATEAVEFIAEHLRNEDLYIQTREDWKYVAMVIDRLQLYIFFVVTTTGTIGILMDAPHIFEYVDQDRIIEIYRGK
Format: cell-based

Going from `O=[N+]([O-])NC1=NCCN1Cc1ccc(Cl)nc1` [imidacloprid] to `N#C/N=C1\SCCN1Cc1ccc(Cl)nc1` [thiacloprid], the pEC50 falls from 7.60 to 7.29 (0.31 log units). The first is the more potent here.

In the case of `CN/C(=N\[N+](=O)[O-])NCc1cnc(Cl)s1` [clothianidin], the pEC50 was 7.87.
